≈ marks a conversion by molar mass, not a printed value. Calls of active or inactive are those of the source. The rule behind the calls is not given here.
How the values were obtained:
KB [1] = test: Cytotoxicity against human KB cells; format: functional, cell-based
KB [2] = test: Cytotoxicity against drug-resistant human KB cells in presence of vinblastine; format: functional, cell-based
KB [3] = test: Cytotoxicity against drug-resistant human KB cells in absence of vinblastine; format: functional, cell-based
Col2 = test: Cytotoxicity against human Col2 cells; format: functional, cell-based
[4] = Cytotoxicity against human BC1 cells; format: functional, cell-based
[5] = biological target: Human immunodeficiency virus type 1 reverse transcriptase (Human immunodeficiency virus 1) (UniProt Q72547); test: Inhibition of HIV1 reverse transcriptase

Activity [5]: inactive
Structure (SMILES): CC(C)=CCC1=C/C(=C(O)\C=C\c2ccc(O)cc2)C(=O)C(CC=C(C)C)(CC=C(C)C)C1=O [MUNCHIWARIN]
IC50 (KB [1]): 11 µg/mL (≈ 23.9 µM)
IC50 (KB [2]): 13 µg/mL
IC50 (KB [3]): 14 µg/mL (≈ 30.4 µM)
IC50 (Col2): 9 µg/mL (≈ 19.5 µM)
IC50 [4]: 9 µg/mL (≈ 19.5 µM)

Source: ChEMBL document CHEMBL1150964, “Munchiwarin, a prenylated chalcone from crotalaria trifoliastrum” (J Nat Prod, 1998)
